Measured values reported in PubChem BioAssay (NCI).
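How tested: cells in 96-well plates exposed to compound for 48 hours at five concentrations. GI50: concentration for 50% inhibition of growth. TGI: total growth inhibition.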

Experiments:
Assay in all cases: NCI anticancer screen, dose series, 48 h
SNB-19 CNS = test system: SNB-19 CNS
U251 CNS = test system: U251 CNS
SF-295 CNS = test system: SF-295 CNS
CAKI-1 renal = test system: CAKI-1 renal
UACC-257 melanoma = test system: UACC-257 melanoma
MDA-MB-231 breast = test system: MDA-MB-231 breast
RXF 393 renal = test system: RXF 393 renal
SF-268 CNS = test system: SF-268 CNS
SNB-75 CNS = test system: SNB-75 CNS
SR leukemia = test system: SR leukemia
HT29 colon = test system: HT29 colon
BT-549 breast = test system: BT-549 breast
K-562 leukemia = test system: K-562 leukemia
DU-145 prostate = test system: DU-145 prostate
NCI-H226 lung = test system: NCI-H226 lung
SK-MEL-2 melanoma = test system: SK-MEL-2 melanoma
SK-MEL-28 melanoma = test system: SK-MEL-28 melanoma
OVCAR-8 ovarian = test system: OVCAR-8 ovarian
CCRF-CEM leukemia = test system: CCRF-CEM leukemia
NCI/ADR-RES ovarian = test system: NCI/ADR-RES ovarian
RPMI-8226 leukemia = test system: RPMI-8226 leukemia
MALME-3M melanoma = test system: MALME-3M melanoma
TK-10 renal = test system: TK-10 renal
OVCAR-4 ovarian = test system: OVCAR-4 ovarian
NCI-H460 lung = test system: NCI-H460 lung
MOLT-4 leukemia = test system: MOLT-4 leukemia
HOP-62 NSCLC = test system: HOP-62 NSCLC
KM12 colon = test system: KM12 colon
ACHN renal = test system: ACHN renal

Compound O=C(Nc1ncc(Cc2ccccc2)s1)c1ccc2c(c1)OCCO2 has a GI50 (SNB-19 CNS) of 54.9 nM, a TGI (SNB-19 CNS) of over 38 µM and a GI50 (U251 CNS) of 41.8 nM. The TGI (U251 CNS) was over 100 µM, the GI50 (SF-295 CNS) was 30.4 nM and the TGI (SF-295 CNS) was 1490 nM. The GI50 (CAKI-1 renal) was 40.6 nM, the TGI (CAKI-1 renal) was over 39 µM and the GI50 (UACC-257 melanoma) was 3.87 µM. The TGI (UACC-257 melanoma) was over 100 µM, the GI50 (MDA-MB-231 breast) was 66.9 nM and the TGI (MDA-MB-231 breast) was 4.03 µM. The GI50 (RXF 393 renal) was 23.1 nM, the TGI (RXF 393 renal) was 71.5 nM and the GI50 (SF-268 CNS) was 459 nM. The TGI (SF-268 CNS) was over 100 µM, the GI50 (SNB-75 CNS) was 27.7 nM and the TGI (SNB-75 CNS) was 1660 nM. The GI50 (SR leukemia) was 48.7 nM, the TGI (SR leukemia) was over 100 µM and the GI50 (HT29 colon) was 50.6 nM. It also gave a TGI (HT29 colon) of over 22 µM, a GI50 (BT-549 breast) of 267 nM and a TGI (BT-549 breast) of over 100 µM. The GI50 (K-562 leukemia) was 38.3 nM, the TGI (K-562 leukemia) was over 100 µM and the GI50 (DU-145 prostate) was 39.5 nM. It also gave a TGI (DU-145 prostate) of over 100 µM, a GI50 (NCI-H226 lung) of 278 nM and a TGI (NCI-H226 lung) of 7.01 µM. It also gave a GI50 (SK-MEL-2 melanoma) of 101 nM, a TGI (SK-MEL-2 melanoma) of over 100 µM and a GI50 (SK-MEL-28 melanoma) of 82.3 nM. For the same compound, the TGI (SK-MEL-28 melanoma) was over 100 µM, the GI50 (OVCAR-8 ovarian) was 59.1 nM and the TGI (OVCAR-8 ovarian) was over 100 µM. The GI50 (CCRF-CEM leukemia) was 48.4 nM, the TGI (CCRF-CEM leukemia) was over 100 µM and the GI50 (NCI/ADR-RES ovarian) was 39.5 nM. For the same compound, the TGI (NCI/ADR-RES ovarian) was over 100 µM, the GI50 (RPMI-8226 leukemia) was 58.7 nM and the TGI (RPMI-8226 leukemia) was over 100 µM. It also gave a GI50 (MALME-3M melanoma) of 42 nM, a TGI (MALME-3M melanoma) of over 100 µM and a GI50 (TK-10 renal) of 154 nM. The GI50 (OVCAR-4 ovarian) was 561 nM, the TGI (OVCAR-4 ovarian) was over 100 µM and the GI50 (NCI-H460 lung) was 37.5 nM. The TGI (NCI-H460 lung) was over 34.5 µM, the GI50 (MOLT-4 leukemia) was 146 nM and the TGI (MOLT-4 leukemia) was over 100 µM. For the same compound, the GI50 (HOP-62 NSCLC) was 78 nM, the TGI (HOP-62 NSCLC) was over 100 µM and the GI50 (KM12 colon) was 39.6 nM. The TGI (KM12 colon) was 32.9 µM and the GI50 (ACHN renal) was 67.6 nM.
